Test [1] deals with metastatic melanoma with BRAF V600E mutation. The experiment in a line: Case of a patient with BRAF V600E metastatic melanoma treated with PLX4032 in a clinical trial. The class given is in vivo, human. The conditions noted are these: single patient. As to the method:
The patient was a person who was diagnosed with metastatic melanoma in February 2009. […] They were treated with several therapeutic regimens with minimal clinical response. By October 2009, the patient had developed numerous subcutaneous metastatic deposits.
In late February 2010, after 4 months of therapy with PLX4032, the patient rapidly developed new subcutaneous nodules all over their body and PLX4032 was stopped. At this point, they provided written informed consent and a percutaneous core biopsy of a recurrent subcutaneous nodule on the chest was obtained. In order to determine possible mechanisms of resistance to PLX4032 in this tumor, the exons from 138 cancer genes from this sample were sequenced using massively parallel sequencing. The patient continued to have rapid progression of their disease and died on hospice in March 2010.

Test [2] has as its system melanoma with BRAF V600E mutations. The conditions noted are these: cited from earlier work.
Test [3] deals with A375 cells expressing the MEK1 C121S mutation. The experiment in a line: Growth inhibition of A375 melanoma cells transfected with MEK1 C121S mutant. The format is cell-based. Conditions: for resistance of cells to the inhibitor (in words): A375 cells expressing MEK1 C121S, growth inhibition; for fold greater GI-50 value of MEK1 C121S cells: versus wild-type A375 cells or A375 cells expressing MEK-WT (for AZD6244 also MEK-DD). The source says:
FIGS. 1A and 1B are graphs showing the percent growth inhibition of A375 melanoma cells treated with increasing concentrations (in μM) of either the BRAF inhibitor PLX4720 (FIG. 1A) or the MEK1 inhibitor AZD6244 (FIG. 1B), wherein the A375 cells were either untransfected (A375), transfected with wild-type MEK1 (MEK-WT), transfected with the MEK1 C121S mutant (MEK-C121S) or transfected with a constitutively active MEK variant (MEK-DD).
It has previously been shown that mutations proximal to the C-helix of MEK1 can confer resistance to BRAF inhibition by PLX4032 by upregulating intrinsic MEK1 kinase activity (Emery, C. M. et al., (2009) Proc. Natl. Acad. Sci. USA 106:20411-20416). Therefore, it seemed plausible that the MEK1 C121 mutation, which is also located proximal to the C-helix, might have caused resistance to PLX4032 in the patient's recurrent tumor. To test this, the C121S was introduced mutation into the sequence of wild-type MEK1 and the mutant cDNA was expressed in the A375 melanoma cell line, which harbors a BRAF V600E mutation. To introduce the […] mutation into the wild-type MEK1 sequence, MEK1 site-directed mutagenesis was performed as previously described (Emery, C. M. et al., (2009) Proc. Natl. Acad. Sci. USA […]). Briefly, MEK1 cDNA was amplified by PCR and site-directed mutagenesis was conducted using Quick-Change II (Stratagene) as per the manufacturer's instructions. As controls, the wild-type MEK1 sequence or a constitutively active variant of MEK1, referred to as MEK1-DD, was expressed in the A375 melanoma cells.
To examine the effect of the MEK1 C121S mutation on responsiveness of the A375 melanoma cells to inhibitors, A375 cells (either untransfected cells, or cells transfected with either the wild-type MEK1, the C121S mutant MEK1, or the constitutively active variant MEK1-DD) were treated with increasing amounts of either the BRAF inhibitor PLX4720 (purchased from Symansis, Inc.), which is a compound closely related to PLX4032, or the MEK1 inhibitor AZD6244 (purchased from Selleck Chemical Co., Ltd.). The results are shown in the graphs of FIGS. 1A (PLX4720 treatment) and 1B (AZD6244 treatment).

Another test deals with MEK. The conditions noted are these: cited from earlier work.
Test [4] concerns human colon cancer xenograft. The conditions noted are these: cited from earlier work.

With `CCCS(=O)(=O)Nc1ccc(F)c(C(=O)c2c[nH]c3ncc(-c4ccc(Cl)cc4)cc23)c1F` [PLX4032], the “duration of therapy until new subcutaneous nodules developed (relapse)” value in test [1] was 4 months. For the same compound, the “tumor response (in words)” value in test [1] (after 15 weeks of therapy) is “near complete regression of all visible tumor nodules”. The “time to visible partial response” value in test [1] (from starting PLX4032) is given as no more than 2 weeks. The “patients with at least 30% tumor response by RECIST criteria” value in test [2] (Phase I, 19 of 27 patients, oral) is given as 70%. Besides, the “average time to relapse (resistance)” value in test [2] (patients treated with PLX4032) is on record as 9 months.
With `CCCS(=O)(=O)Nc1ccc(F)c(C(=O)c2c[nH]c3ncc(Cl)cc23)c1F` [PLX4720], in test [3], the “resistance of cells to the inhibitor (in words)” value is listed as “strongly resistant” and the “fold greater GI-50 value of MEK1 C121S cells” value is reported as 100 fold.
With `O=C(NOCC1CC1)c1ccc(F)c(F)c1Nc1ccc(I)cc1Cl` [CI-1040], in the test on MEK, the “MEK inhibition in cell-based assays (in words)” value is on record as “inhibited MEK”. Also, the “effect on xenograft growth (in words)” value in test [4] was “reduced human colon cancer xenograft growth”.
Consider `Cn1cnc2c(F)c(Nc3ccc(Br)cc3Cl)c(C(=O)NOCCO)cc21` [AZD6244], for which, in test [3], the “resistance of cells to the inhibitor (in words)” value is “strongly resistant” and the “fold greater GI-50 value of MEK1 C121S cells” value is roughly 1000 fold.

The record behind these values is patent publication US10788496B2, “MEK1 mutation conferring resistance to RAF and MEK inhibitors” (Dana-Farber Cancer Institute, Inc., priority 2010, dated 2020).
